Test results published in patent US9937217B2, “Method of inhibiting ABCG2 and related treatments” (The United States of America, as represented by the …, priority 2007, dated 2018).
“And” between values parts separate entries of the source, which are not always exact repeats. Equal entries are not always repeated. Where two headings read alike, the source gives them in different places.

What was measured:
ABCG2 [1] = molecular target: T1, ABCG2 (Homo sapiens, UniProt Q9UNQ0); test: Photoaffinity labeling of ABCG2 with [125I]-IAAP in MCF-7 FLV1000 membranes; format: binding; conditions: 20 μM compound; for activity at 10 min, 20 µM: human, crude membranes of MCF-7 FLV1000 cells expressing ABCG2, pH 7.5, probe [125I]-IAAP, 3-6 nM (2200 Ci/mmole), read-out: Blocking of 125I-IAAP binding: % of control binding
T1 sequence (Q9UNQ0 1-655): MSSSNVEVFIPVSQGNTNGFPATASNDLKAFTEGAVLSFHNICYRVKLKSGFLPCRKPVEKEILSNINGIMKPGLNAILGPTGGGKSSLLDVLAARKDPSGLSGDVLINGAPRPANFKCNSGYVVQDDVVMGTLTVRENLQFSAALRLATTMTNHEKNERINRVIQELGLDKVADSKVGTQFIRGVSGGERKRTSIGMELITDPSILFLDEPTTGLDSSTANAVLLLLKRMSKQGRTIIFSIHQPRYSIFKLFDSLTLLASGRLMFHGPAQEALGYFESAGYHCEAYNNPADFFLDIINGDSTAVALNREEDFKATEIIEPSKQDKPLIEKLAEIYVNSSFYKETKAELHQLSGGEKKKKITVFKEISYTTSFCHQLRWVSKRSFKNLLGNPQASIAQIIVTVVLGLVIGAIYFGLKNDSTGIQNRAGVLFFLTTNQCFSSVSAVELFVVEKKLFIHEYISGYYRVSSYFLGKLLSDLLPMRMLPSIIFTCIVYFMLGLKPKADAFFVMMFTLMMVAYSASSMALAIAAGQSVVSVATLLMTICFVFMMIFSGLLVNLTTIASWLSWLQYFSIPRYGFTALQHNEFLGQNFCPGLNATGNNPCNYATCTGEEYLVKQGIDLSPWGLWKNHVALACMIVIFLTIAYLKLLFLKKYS
Procedure: ABCG2 expressed in MCF-7 FLV1000 cells is photo-labeled with [^125I]-IAAP as described previously (Shukla et al., Biochemistry, 45: 8940-51 (2006)). Briefly, crude membranes (1 mg protein/me of MCF-7 FLV1000 cells are incubated with 20 μM of the indicated compound for 10 min at room temperature in 50 mM Tris-HCl, pH 7.5. 3-6 nM [^125I]-IAAP (2200 Ci/mmole) (PerkinElmer Life Sciences, Wellesley, Mass.) is added, and the samples are incubated for an additional 5 min under subdued light. The samples are then exposed to ultraviolet (UV, 365 nm) light for 10 min, and the labeled ABCG2 is immunoprecipitated using BXP-21 antibody. The radioactivity incorporated into the ABCG2 band is quantified using the STORM 860 PhosphorImager system (Molecular Dynamics, Sunnyvale, Calif.) and ImageQuaNT software (Molecular Dynamics).

MRP1 = molecular target: T2, MRP1 (Homo sapiens, UniProt P33527); test: Calcein efflux, MRP1-transfected HEK293 cells (flow cytometry); format: cell-based; conditions: 10 μM compound
T2 construct: expressed in transfected cells; host or cells: HEK293
Procedure: (§1) APC fluorescence is measured with a 635 nm read diode laser and 561 nm longpass filter. At least 10000 events are collected. Dead cells are eliminated based on propidium iodide exclusion.
(§2) Cells are then washed and incubated in substrate-free medium continuing with or without inhibitor for 1 h.

ABCG2 [2] = molecular target: T1, ABCG2; format: cell-based; conditions: compound, ABCG2-transfected HEK293
Procedure: At least 10000 events are collected. Dead cells are eliminated based on propidium iodide exclusion.
Five compounds are examined for their ability to increase surface staining of the 5D3 antibody.
The 5D3 shift assay is performed as described by Ozvegy-Laczka et al. with minor modifications. […] Cells are subsequently washed and incubated with APC-labeled goat anti-mouse secondary antibody (1:35) for 30 min after which the cells are washed and analyzed.

NCI-H460/MX20 cells = test: Sensitization of ABCG2-overexpressing cells to killing by mitoxantrone (XTT assay); format: cell-based, human; conditions: for MX sensitization: % NCI-H460/MX20 cell survival in the presence of compound and mitoxantrone: 10 μM compound
Procedure: After removal of mitoxantrone, cells are further grown in the same medium without mitoxantrone for 5-30 days. These cells are designated NCI-H460/MX20. Parental cells (low ABCG2 expression) (Robey et al., vide supra) are maintained in the same medium without mitoxantrone. […] MRP1-transfected HEK293 cells are maintained in 5 μM etoposide.
Final DMSO concentration is 0.2% (v/v).

ABCG2 [3] = molecular target: T1, ABCG2; test: BODIPY-prazosin efflux, ABCG2-transfected HEK293 cells (flow cytometry); conditions: 10 μM compound
Procedure: as §1, §2

Pgp = Pgp (Homo sapiens, UniProt P08183)
Procedure: as §1, §2

ABCG2 [4] = molecular target: T1, ABCG2; test: Pheophorbide a (PhA) accumulation screening assay; format: cell-based
Procedure: (§3) To prepare the cell culture, NCI-H460 human lung non-small-cell carcinoma cells (National Cancer Institute, Frederick, Md.) are selected for over-expression of ABCG2 by maintenance in RPMI1640/10% FBS supplemented with 20 nM mitoxantrone (Robey et al., Biochim. Biophys. Acta, 1512: 171-82 (2001)). After removal of mitoxantrone, cells are further grown in the same medium without mitoxantrone for 5-30 days. These cells are designated NCI-H460/MX20. Parental cells (low ABCG2 expression) (Robey et al., vide supra) are maintained in the same medium without mitoxantrone. ABCG2-transfected or MDR1-transfected (i.e. Pgp-expressing) HEK293 cells are maintained in 2 mg/ml G418 as previously described (Robey et al., Br. J. Cancer, 89: 1971-8 (2003)). MRP1-transfected HEK293 cells are maintained in 5 μM etoposide. MCF-7 FLV1000 cells are maintained in Richter's medium with 10% FCS and Pen/strep with 1000 nM flavopiridol (Robey et al., Clin. Cancer Res., 7: 145-52 (2001)).
Accumulation of pheophorbide a, a fluorescent ABCG2 substrate (Jonker et al., Proc. Natl. Acad. Sci. USA, 99: 15649-54 (2002) and Robey et al., Cancer Res., 64: 1242-6 (2004)), formed the basis of the assay for inhibitors of ABCG2 activity (Henrich et al., J. Biomol. Screen, 11: 176-83 (2006)). Briefly, NCI-H460/MX20 cells are transferred to black wall, clear bottom 384-well polylysine-coated assay plates (Corning, Corning, N.Y.) and allowed to attach for several hours. Pheophorbide a (1 μM final concentration) is added immediately followed by compounds or vehicle (DMSO/PBS) control and incubated an additional 18 h. After removal of medium and washing with PBS containing Ca^2+ and Mg^2+, fluorescence intensity is read on a Tecan Safire fluorescence plate reader in bottom read mode, 395 nm excitation, 670 nm emission. Each plate has control wells containing 10 μM (final concentration) FTC. Data are normalized to FTC and reported as % of FTC fluorescence.

ABCG2 [5] = molecular target: T1, ABCG2; conditions: NCI-H460/MX20 cells; Henrich et al., 2006; read-out: Pheophorbide a IC50 for FTC; cited from earlier work
NCI-H460 cells = test: Mitoxantrone / compound cytotoxicity in parental cells (XTT assay); format: cell-based; conditions: Homo sapiens, 48 h; unselected NCI-H460 cells, 30 μM mitoxantrone, 2 days, (sd); read-out: Cell numbers, % of control (vehicle), mitoxantrone alone
Procedure: as §3
The ability of compounds to sensitize NCI-H460/MX20 cells to killing by mitoxantrone is assessed as described in Henrich et al. (J. Biomol. Screen, 11: 176-83 (2006)). ABCG2 over-expressing cells or parental cells are treated with mitoxantrone in the presence or absence of 10 μM compound (or 1 μM FTC) and cell numbers assessed after 2 d by an XTT assay (Scudiero et al., Cancer Res., 48: 4827-33 (1988)). […]

[6] = NCI-H460/MX20 cells, PhA accumulation, read-out: Pheophorbide a IC50

Pgp, sequence (P08183 whole entry): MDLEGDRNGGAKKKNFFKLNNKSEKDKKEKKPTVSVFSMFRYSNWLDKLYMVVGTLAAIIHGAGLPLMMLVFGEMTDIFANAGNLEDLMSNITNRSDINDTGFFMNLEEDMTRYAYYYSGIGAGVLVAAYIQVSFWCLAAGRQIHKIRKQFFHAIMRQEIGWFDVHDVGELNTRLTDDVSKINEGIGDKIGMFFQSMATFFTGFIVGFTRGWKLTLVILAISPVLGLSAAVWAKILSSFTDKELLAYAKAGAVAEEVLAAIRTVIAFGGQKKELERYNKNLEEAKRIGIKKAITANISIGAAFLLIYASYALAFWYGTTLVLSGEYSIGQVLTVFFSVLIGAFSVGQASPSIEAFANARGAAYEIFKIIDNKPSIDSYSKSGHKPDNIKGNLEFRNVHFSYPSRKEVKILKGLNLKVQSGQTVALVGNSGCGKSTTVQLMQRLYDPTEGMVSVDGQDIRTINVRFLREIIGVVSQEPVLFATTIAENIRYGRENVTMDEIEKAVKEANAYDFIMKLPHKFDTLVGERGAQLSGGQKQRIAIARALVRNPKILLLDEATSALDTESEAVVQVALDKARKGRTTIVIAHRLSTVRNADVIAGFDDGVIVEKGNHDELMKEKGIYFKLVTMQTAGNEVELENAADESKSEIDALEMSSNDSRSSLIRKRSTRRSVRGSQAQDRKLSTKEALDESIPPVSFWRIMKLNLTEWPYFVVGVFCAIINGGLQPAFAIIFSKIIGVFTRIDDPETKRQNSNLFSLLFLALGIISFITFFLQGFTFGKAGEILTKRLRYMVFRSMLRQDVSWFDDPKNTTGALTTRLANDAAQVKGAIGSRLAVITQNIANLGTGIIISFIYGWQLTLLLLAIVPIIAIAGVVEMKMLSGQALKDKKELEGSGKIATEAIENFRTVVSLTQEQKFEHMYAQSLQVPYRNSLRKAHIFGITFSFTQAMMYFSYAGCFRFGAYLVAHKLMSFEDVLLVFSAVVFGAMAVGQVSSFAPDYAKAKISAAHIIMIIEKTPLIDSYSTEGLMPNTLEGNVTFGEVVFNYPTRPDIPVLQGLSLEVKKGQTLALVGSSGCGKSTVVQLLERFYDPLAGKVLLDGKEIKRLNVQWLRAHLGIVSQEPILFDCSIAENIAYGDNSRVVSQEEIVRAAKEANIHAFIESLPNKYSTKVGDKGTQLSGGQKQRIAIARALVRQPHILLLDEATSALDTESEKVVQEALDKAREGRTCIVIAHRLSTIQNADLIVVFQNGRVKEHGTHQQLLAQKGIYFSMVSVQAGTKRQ
T2 sequence (P33527 whole entry): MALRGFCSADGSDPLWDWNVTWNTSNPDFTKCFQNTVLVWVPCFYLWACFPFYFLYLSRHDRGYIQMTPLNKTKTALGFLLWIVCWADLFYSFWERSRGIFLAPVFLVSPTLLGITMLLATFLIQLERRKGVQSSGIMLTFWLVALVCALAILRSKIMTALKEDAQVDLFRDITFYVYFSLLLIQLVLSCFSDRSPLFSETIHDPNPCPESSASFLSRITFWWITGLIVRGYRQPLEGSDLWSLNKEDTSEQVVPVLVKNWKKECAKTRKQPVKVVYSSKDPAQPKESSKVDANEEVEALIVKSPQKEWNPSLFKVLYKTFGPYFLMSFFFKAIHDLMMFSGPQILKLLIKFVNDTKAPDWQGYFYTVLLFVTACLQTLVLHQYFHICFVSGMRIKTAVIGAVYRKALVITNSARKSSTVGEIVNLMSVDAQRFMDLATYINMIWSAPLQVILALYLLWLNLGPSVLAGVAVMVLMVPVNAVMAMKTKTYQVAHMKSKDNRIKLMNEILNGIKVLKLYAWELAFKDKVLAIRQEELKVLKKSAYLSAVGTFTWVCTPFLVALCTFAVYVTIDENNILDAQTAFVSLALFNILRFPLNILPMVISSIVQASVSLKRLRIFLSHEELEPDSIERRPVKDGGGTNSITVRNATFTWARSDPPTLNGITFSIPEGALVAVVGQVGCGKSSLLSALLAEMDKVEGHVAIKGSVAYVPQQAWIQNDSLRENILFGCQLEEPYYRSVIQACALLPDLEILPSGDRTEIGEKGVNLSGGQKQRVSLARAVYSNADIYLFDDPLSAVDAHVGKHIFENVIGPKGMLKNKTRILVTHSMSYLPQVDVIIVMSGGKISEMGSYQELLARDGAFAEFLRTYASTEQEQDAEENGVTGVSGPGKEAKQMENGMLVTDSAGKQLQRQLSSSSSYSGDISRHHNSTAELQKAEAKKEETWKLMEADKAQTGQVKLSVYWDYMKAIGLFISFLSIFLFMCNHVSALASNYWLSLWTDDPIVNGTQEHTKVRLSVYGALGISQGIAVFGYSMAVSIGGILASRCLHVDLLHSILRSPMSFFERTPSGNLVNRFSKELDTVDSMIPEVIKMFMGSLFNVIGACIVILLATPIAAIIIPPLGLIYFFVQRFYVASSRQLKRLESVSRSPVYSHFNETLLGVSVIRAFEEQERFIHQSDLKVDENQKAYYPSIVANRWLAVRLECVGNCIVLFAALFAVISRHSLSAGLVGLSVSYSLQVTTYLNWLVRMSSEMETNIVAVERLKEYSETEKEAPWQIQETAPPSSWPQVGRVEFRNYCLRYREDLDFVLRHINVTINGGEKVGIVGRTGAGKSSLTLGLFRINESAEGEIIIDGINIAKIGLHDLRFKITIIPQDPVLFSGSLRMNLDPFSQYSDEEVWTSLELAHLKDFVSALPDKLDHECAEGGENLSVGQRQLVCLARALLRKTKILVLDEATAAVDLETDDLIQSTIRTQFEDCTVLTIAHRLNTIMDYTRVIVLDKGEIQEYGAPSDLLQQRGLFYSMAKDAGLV

Row | SMILES | activity at 10 min, 20 µM (ABCG2 [1]) [%] | MRP1 inhibition, calcein efflux: treated/control ratio (MRP1) | 5D3 staining: treated/control ratio (ABCG2 [2]) | MX sensitization: % NCI-H460/MX20 cell survival in the presence of compound and mitoxantrone (NCI-H460/MX20 cells; 30 μM mitoxantrone, 2 d) [%] | BODIPY-prazosin efflux: treated/control ratio (ABCG2 [3]) | Pgp inhibition, rhodamine efflux: treated/control ratio (Pgp; human, 10 µM) | IC50 (ABCG2 [4]; [6]) [µM] | Pheophorbide a total, % of FTC response (ABCG2 [4]; human, 18 h, 10 µM) [%] | Blocking of 125I-IAAP binding: % of control binding (ABCG2 [1]) [%] | MX sensitization: % NCI-H460/MX20 cell survival in the presence of FTC and mitoxantrone (NCI-H460/MX20 cells; 1 μM FTC, 30 μM mitoxantrone, 2 d) | Pheophorbide a total, % of FTC response (ABCG2 [4]; 10 μM compound, NCI-H460/MX20 cells, normalized to 10 μM FTC) [%] | IC50 (ABCG2 [5]) [µM] | Cell number, % of control, mitoxantrone alone (NCI-H460/MX20 cells; NCI-H460/MX20 cells, mitoxantrone treatment, (sd)) [%] | activity at 30 µM (NCI-H460 cells) [%] | IC50 (ABCG2 [4]) [µM] | Pgp inhibition, rhodamine efflux: treated/control ratio (Pgp; valspodar 3 μg/mL, positive control)
1 | COc1cc2c[n+](C)c3c4cc(OC)c(OC)cc4ccc3c2cc1OC [NSC168201] | 34.2 | 0.81 | 3.7 | 21.2 | 2.6 | 0.64 | 3.9 | 104.5 |  |  |  |  |  |  |  | 
2 | O=C(O)c1ccc(/C=N/N=C2c3ccccc3-c3ccccc32)cc1 [NSC120688] | 19.1 | 0.81 | 3.7 | 20.9 | 2.0 | 0.84 | 4.3 | 67.2 |  |  |  |  |  |  |  | 
3 | COc1ccc2c3c([nH]c2c1)[C@H](C=C(C)C)N1C(=O)[C@@H]2CCCN2C(=O)[C@@H]1C3 [FTC, fumitremorgin C, reference compound] |  |  | 3.7 |  | 3.5 |  |  |  | 32.7 | 24.5±1.5% and 24.5% | 100 | 0.8 |  |  |  | 
4 | Cn1ncc2c(NCCc3ccccc3)nc(Cl)nc21 [NSC19139] | 33.5 | 1.3 | 3.6 | 30.0 | 3.5 | 0.77 | 2.6 | 76.6 |  |  |  |  |  |  |  | 
5 | O=C1c2c(O)ccc(O)c2C(=O)c2c(NCCNCCO)ccc(NCCNCCO)c21 [mitoxantrone, reference compound] |  |  |  |  |  |  |  |  |  |  |  |  | 56.1±2.1 | 21.6 ± 1.6 |  | 
6 | Cn1ncc2c(Nc3cccc(Cl)c3)nc(Nc3cccc(Cl)c3)nc21 [NSC11668] | 24.6 | 1.2 | 4.0 | 21.9 | 5.9 | 0.73 |  | 84.1 |  |  |  |  |  |  | 4.5 | 
7 | C/C=C/C[C@@H](C)C(=O)[C@H]1C(=O)N[C@@H](C(C)C)C(=O)N(C)CC(=O)N(C)[C@@H](CC(C)C)C(=O)N[C@@H](C(C)C)C(=O)N(C)[C@@H](CC(C)C)C(=O)N[C@@H](C)C(=O)N[C@H](C)C(=O)N(C)[C@@H](CC(C)C)C(=O)N(C)[C@@H](CC(C)C)C(=O)N(C)[C@@H](C(C)C)C(=O)N1C [valspodar, reference compound] |  |  |  |  |  |  |  |  |  |  |  |  |  |  |  | 14.9
8 | Cc1cc(O)nc2cc3oc4ccccc4c3cc12 [NSC375985] | 48.7 | 1.8 | 3.2 | 27.6 | 3.6 | 0.84 |  | 63.8 |  |  |  |  |  |  | 3.7 | 
